In test [1] the target is T1, p-Akt2 in WM115 cells (Homo sapiens, UniProt P31751).
T1 construct: SureFire assays to detect cellular p-Akt1, p-Akt2 and p-Akt3 levels in WM115 cells (Akt2/3) and LNCaP cells (Akt1); endogenous in cells; host or cells: WM115 (ECACC 91061232), insulin-stimulated
In words: Phospho-Akt cellular SureFire assay, p-Akt2 in WM115 cells. Format: cell-based. Conditions: insulin stimulated, read-out: Biological Assay 2 IC50 (nM) Akt2 WM115. In outline:
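Readout is a bead-proximity SureFire assay pairing a pThr308 Akt antibody with a total Akt2 antibody, lysate and beads incubated 2 h plus 2 h at room temperature in the dark. Before lysis, serum-starved WM115 cells received 100 nM insulin (10 min), then test compound (15 min, 0.3% DMSO); IC50 by 4-parameter equation.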

In test [2] the target is T2, p-Akt1 in LNCaP cells (Homo sapiens, UniProt P31749).
T2 construct: SureFire assays to detect cellular p-Akt1, p-Akt2 and p-Akt3 levels in WM115 cells (Akt2/3) and LNCaP cells (Akt1); endogenous in cells; host or cells: LNCaP (ECACC 89110211)
T2 sequence (P31749 whole entry): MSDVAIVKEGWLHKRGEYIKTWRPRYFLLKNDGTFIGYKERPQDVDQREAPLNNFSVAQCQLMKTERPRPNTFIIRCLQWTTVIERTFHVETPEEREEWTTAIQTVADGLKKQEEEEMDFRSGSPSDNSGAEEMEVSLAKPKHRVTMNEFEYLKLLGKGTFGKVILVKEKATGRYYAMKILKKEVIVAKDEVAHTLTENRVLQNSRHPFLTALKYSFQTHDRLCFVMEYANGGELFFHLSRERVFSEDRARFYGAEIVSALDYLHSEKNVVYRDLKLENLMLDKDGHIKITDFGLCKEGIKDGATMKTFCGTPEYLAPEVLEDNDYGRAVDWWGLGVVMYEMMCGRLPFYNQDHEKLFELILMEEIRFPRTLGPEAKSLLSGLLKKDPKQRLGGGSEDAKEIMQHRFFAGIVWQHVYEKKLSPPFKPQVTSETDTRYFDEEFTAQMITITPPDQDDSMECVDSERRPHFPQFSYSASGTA
In words: Phospho-Akt cellular SureFire assay, p-Akt1 in LNCaP cells. Format: cell-based. Conditions: read-out: Biological Assay 2 IC50 (nM) Akt1 LNCaP. In outline:
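Phospho-Thr308 Akt1 detected by AlphaScreen SureFire proximity beads in LNCaP lysates after 15 min compound treatment at 37 °C in 0.1% FBS medium, unstimulated, 0.3% DMSO. Cells plated at 5×10^4/well overnight; IC50 from a 4-parameter equation.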

The target in test [3] is T3, Akt3 (Homo sapiens, UniProt Q9Y243).
T3 construct: unspecified tag, removed (detagged) (cleaved yes); purchased SignalChem and Proteros (Akt3); Merck Millipore (PDK1) 14-452 (PDK1); none given for Akt3
T3 sequence (Q9Y243 whole entry): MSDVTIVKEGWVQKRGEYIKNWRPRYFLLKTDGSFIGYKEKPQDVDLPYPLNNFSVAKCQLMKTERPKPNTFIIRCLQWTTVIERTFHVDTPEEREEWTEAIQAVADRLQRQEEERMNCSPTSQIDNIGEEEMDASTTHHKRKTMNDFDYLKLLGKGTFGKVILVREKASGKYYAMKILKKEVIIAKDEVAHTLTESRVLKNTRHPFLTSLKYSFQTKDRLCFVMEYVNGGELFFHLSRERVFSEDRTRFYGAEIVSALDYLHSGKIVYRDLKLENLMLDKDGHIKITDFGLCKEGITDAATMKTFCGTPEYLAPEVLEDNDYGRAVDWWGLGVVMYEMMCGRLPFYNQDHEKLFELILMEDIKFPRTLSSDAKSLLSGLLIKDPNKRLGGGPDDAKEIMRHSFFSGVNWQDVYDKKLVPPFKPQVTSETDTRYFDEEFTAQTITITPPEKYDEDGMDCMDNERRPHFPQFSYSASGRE
The test can be described thus: Akt activation assay (PDK1-mediated activation, LANCE Ultra crosstide TR-FRET), Akt3. Format: biochemical. To be noted: read-out: Biological Assay 1 IC50 (nM) Akt3. In outline: (§1)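 Two-step cascade format: Akt1, Akt2 or Akt3 phosphorylates Ulight-crosstide (100 nM) only after activation by 5 nM PDK1 in presence of PtdIns(3,4,5)P3 vesicles and 100 μM ATP. Product quantified by Eu-antibody TR-FRET after 30 min reaction.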

For test [4], the target named is T4, Akt2 (Homo sapiens, UniProt P31751).
T4 construct: unspecified tag, removed (detagged) (cleaved yes); purchased SignalChem and Proteros (Akt2); Merck Millipore (PDK1) 14-452 (PDK1); none given for Akt2
T4 sequence (P31751 whole entry): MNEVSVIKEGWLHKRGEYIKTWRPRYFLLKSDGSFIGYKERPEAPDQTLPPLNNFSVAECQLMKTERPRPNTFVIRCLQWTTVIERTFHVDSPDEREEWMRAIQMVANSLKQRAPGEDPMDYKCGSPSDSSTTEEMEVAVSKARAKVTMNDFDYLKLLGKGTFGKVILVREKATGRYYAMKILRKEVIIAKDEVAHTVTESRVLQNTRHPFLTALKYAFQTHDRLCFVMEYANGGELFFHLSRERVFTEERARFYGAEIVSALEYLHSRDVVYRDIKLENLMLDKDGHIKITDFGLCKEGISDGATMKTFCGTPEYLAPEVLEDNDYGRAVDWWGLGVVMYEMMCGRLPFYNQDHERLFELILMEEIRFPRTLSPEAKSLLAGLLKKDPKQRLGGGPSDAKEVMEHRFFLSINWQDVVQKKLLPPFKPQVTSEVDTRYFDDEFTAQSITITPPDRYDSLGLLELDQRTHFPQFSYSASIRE
In words: Akt activation assay (PDK1-mediated activation, LANCE Ultra crosstide TR-FRET), Akt2. Format: biochemical. Conditions: read-out: Biological Assay 1 IC50 (nM) Akt2. The procedure, abridged: as §1

Test [5] deals with T5, Akt1 (Homo sapiens, UniProt P31749).
T5 construct: unspecified tag, removed (detagged) (cleaved yes); purchased SignalChem and Proteros (Akt1); Merck Millipore (PDK1) 14-452 (PDK1); none given for Akt1
T5 sequence (P31749 whole entry): as the sequence (P31749 whole entry) above
In words: Akt activation assay (PDK1-mediated activation, LANCE Ultra crosstide TR-FRET), Akt1. Conditions: read-out: Biological Assay 1 IC50 (nM) Akt1. Format: biochemical. The procedure, abridged:
as §1

For test [6], the target named is T6, p-Akt3 in WM115 cells (Homo sapiens, UniProt Q9Y243).
T6 construct: SureFire assays to detect cellular p-Akt1, p-Akt2 and p-Akt3 levels in WM115 cells (Akt2/3) and LNCaP cells (Akt1); endogenous in cells; host or cells: WM115 (ECACC 91061232), insulin-stimulated
T6 sequence (Q9Y243 whole entry): as the sequence (Q9Y243 whole entry) above
In words: Phospho-Akt cellular SureFire assay, p-Akt3 in WM115 cells. Format: cell-based. To be noted: insulin stimulated, read-out: Biological Assay 2 IC50 (nM) Akt3 WM115. The procedure, abridged:
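pThr308-Akt3 in lysates was quantified by bead-proximity SureFire detection, pairing a phospho-specific antibody with a total Akt3 antibody. Before lysis, WM115 cells in 0.1% FBS medium were treated for 15 min at 37 °C with compound (final DMSO 0.3%), following a 10 min stimulation with 100 nM insulin. IC50 was obtained by 4-parameter fitting.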

A value given as a limit tells only on which side of the number the result lay.

T1 sequence (P31751 whole entry): as the sequence (P31751 whole entry) above

For the molecule `COC(=O)N(C(C)C)[C@H]1CC[C@H](CC(=O)Nc2cc(-c3ccccc3)c(-c3ccc([C@]4(N)C[C@](C)(O)C4)cc3)cn2)CC1` [Example A105, Methyl (trans-4-(2-((5-(4-(trans-1-amino-3-hydroxy-3-methylcyclobutyl)phenyl)-4-phenylpyridin-2-yl)amino)-2-oxoethyl)cyclohexyl)(isopropyl)carbamate], the IC50 in test [1] is 5100 nM; in test [2] it was 9000 nM; in test [3] it was 20 nM; in test [4], 220 nM; in test [5], above 15000 nM; in test [6], 300 nM.

Consider `CC(=O)N(C(C)C)[C@H]1CC[C@H](CC(=O)Nc2cnc(-c3ccc(C(C)(C)N)cc3)c(-c3ccccc3)c2)CC1` [Example A44, N-(6-(4-(2-aminopropan-2-yl)phenyl)-5-phenylpyridin-3-yl)-2-(trans-4-(N-isopropylacetamido)cyclohexyl)acetamide], for which the IC50 in test [1] was 11000 nM; in test [2], above 30000 nM; in test [3], 1800 nM; in test [4], 13000 nM; in test [5], above 30000 nM; in test [6], 440 nM.

As to `CC(=O)N[C@H]1CC[C@H](CC(=O)Nc2cnc(-c3ccc(C4(N)CCC4)cc3)c(-c3ccccc3)c2)CC1` [Example A38, 2-(trans-4-acetamidocyclohexyl)-N-(6-(4-(1-aminocyclobutyl)phenyl)-5-phenylpyridin-3-yl)acetamide], the IC50 in test [1] was 1600 nM; in test [2], above 5700 nM; in test [3], 18 nM; in test [4], 190 nM; in test [5], 10000 nM; in test [6], 120 nM.

`COCCN(C)[C@H]1CC[C@H](CC(=O)Nc2cc(-c3ccccc3)c(-c3ccc([C@]4(N)C[C@](C)(O)C4)cc3)cn2)CC1` [Example 128, N-(5-(4-(trans-1-amino-3-hydroxy-3-methylcyclobutyl)phenyl)-4-phenylpyridin-2-yl)-2-(trans-4-((2-methoxyethyl)(methyl)amino)cyclohexyl)acetamide]: the IC50 is 810 nM in test [1]; 5500 nM in test [2]; 110 nM in test [3]; 370 nM in test [4]; above 18000 nM in test [5]; 93 nM in test [6].

As for `COCC(=O)N(C)[C@H]1CC[C@H](CC(=O)Nc2cc(-c3ccccc3)c(-c3ccc([C@]4(N)C[C@](C)(O)C4)cc3)cn2)CC1` [Example 107, N-(trans-4-(2-((5-(4-(trans-1-amino-3-hydroxy-3-methylcyclobutyl)phenyl)-4-phenylpyridin-2-yl)amino)-2-oxoethyl)cyclohexyl)-2-methoxy-N-methylacetamide], the IC50 in test [1] was 390 nM; in test [2] it was 7300 nM; in test [3], 9 nM; in test [4], 94 nM; in test [5], above 30000 nM; in test [6], 9 nM.

Take `CC(C)(C)CC(=O)N[C@H]1CC[C@H](CC(=O)Nc2cnc(-c3ccc(C(C)(C)N)cc3)c(-c3ccccc3)c2)CC1` [Example A37, N-(trans-4-(2-((6-(4-(2-aminopropan-2-yl)phenyl)-5-phenylpyridin-3-yl)amino)-2-oxoethyl)cyclohexyl)-3,3-dimethylbutanamide]: the IC50 in test [1] was 8700 nM; in test [2], above 30000 nM; in test [3] it was 61 nM; in test [4], 3500 nM; in test [5] it was above 30000 nM; in test [6], 340 nM.

Take `COC(=O)N(C)[C@H]1CC[C@H](CC(=O)Nc2cc(-c3ccccc3)c(-c3ccc(C4(N)CC4)c(F)c3)nn2)CC1` [Example A104, Methyl (trans-4-(2-((6-(4-(1-aminocyclopropyl)-3-fluorophenyl)-5-phenylpyridazin-3-yl)amino)-2-oxoethyl)cyclohexyl)(methyl)carbamate]: the half-maximal inhibitory concentration (IC50) in test [1] is above 30000 nM; in test [2] it was above 30000 nM; in test [3], 200 nM; in test [4], 5600 nM; in test [5] it was above 30000 nM; in test [6] it was 1000 nM.

As for `CC(=O)N(C)[C@H]1CC[C@H](CC(=O)Nc2cc(-c3ccsc3)c(-c3ccc(C(C)(C)N)cc3)nn2)CC1` [Example A96, N-(6-(4-(2-aminopropan-2-yl)phenyl)-5-(thiophen-3-yl)pyridazin-3-yl)-2-(trans-4-(N-methylacetamido)cyclohexyl)acetamide], the half-maximal inhibitory concentration (IC50) in test [1] is 15000 nM; in test [2], above 30000 nM; in test [3], 92 nM; in test [4], 10000 nM; in test [5] it was above 30000 nM; in test [6], 180 nM.

In the case of `CC(C)C(=O)N(C)[C@H]1CC[C@H](CC(=O)Nc2cc(-c3ccccc3)c(-c3ccc([C@]4(N)C[C@](C)(O)C4)cc3)nn2)CC1` [Example A79, N-(trans-4-(2-((6-(4-(trans-1-amino-3-hydroxy-3-methylcyclobutyl)phenyl)-5-phenylpyridazin-3-yl)amino)-2-oxoethyl)cyclohexyl)-N-methylisobutyramide], the concentration for half-maximal inhibition (IC50) in test [1] stood at 370 nM; in test [2], 1900 nM; in test [3], 4 nM; in test [4], 63 nM; in test [5], 3900 nM; in test [6], 10 nM.

For the molecule `COC(=O)N(C)[C@H]1CC[C@H](CC(=O)Nc2cc(-c3ccccn3)c(-c3ccc(C4(N)CCC4)cc3)cn2)CC1` [Example 86, Methyl (trans-4-(2-((5′-(4-(1-aminocyclobutyl)phenyl)-[2,4′-bipyridin]-2′-yl)amino)-2-oxoethyl)cyclohexyl)(methyl)carbamate], the IC50 in test [1] was 12000 nM; in test [2], above 30000 nM; in test [3], 480 nM; in test [4], 14000 nM; in test [5] it was above 30000 nM; in test [6] it was 430 nM.

As to `CCN(C(=O)OC)[C@H]1CC[C@H](CC(=O)Nc2cnc(-c3ccc([C@]4(N)C[C@](C)(O)C4)cc3)c(-c3ccccc3)c2)CC1` [Example 118, Methyl (trans-4-(2-((6-(4-(trans-1-amino-3-hydroxy-3-methylcyclobutyl)phenyl)-5-phenylpyridin-3-yl)amino)-2-oxoethyl)cyclohexyl) (ethyl)carbamate], the half-maximal inhibitory concentration (IC50) was 230 nM in test [1]; 1600 nM in test [2]; 5 nM in test [3]; 110 nM in test [4]; 8500 nM in test [5]; 6 nM in test [6].

On to `CC(=O)N(C)[C@H]1CC[C@H](CC(=O)Nc2cc(-c3ccccc3)c(-c3ccc(C4(N)CC(F)(F)C4)cc3)nn2)CC1` [Example 73, N-(6-(4-(1-amino-3,3-difluorocyclobutyl)phenyl)-5-phenylpyridazin-3-yl)-2-(trans-4-(N-methylacetamido)cyclohexyl)acetamide], for which the concentration for half-maximal inhibition (IC50) is 12000 nM in test [1]; above 17000 nM in test [2]; 22 nM in test [3]; 540 nM in test [4]; above 30000 nM in test [5]; 66 nM in test [6].

For `CN([C@H]1CC[C@H](CC(=O)Nc2cnc(-c3ccc(C4(N)CCC4)cc3)c(-c3ccsc3)c2)CC1)S(C)(=O)=O` [Example 17, N-(6-(4-(1-aminocyclobutyl)phenyl)-5-(thiophen-3-yl)pyridin-3-yl)-2-(trans-4-(N-methylmethylsulfonamido)cyclohexyl)acetamide], the half-inhibitory concentration (IC50) is 1900 nM in test [1]; 7100 nM in test [2]; 48 nM in test [3]; 1200 nM in test [4]; above 26000 nM in test [5]; 140 nM in test [6].

The values above are taken from patent US10336702B2, “Pharmaceutically active compounds” (BERGENBIO ASA, priority 2015, dated 2019).
